Key:
[1] = system: normal mouse fibroblast Balb/3T3 cells; assay: In vitro cytotoxicity (SRB), Balb/3T3; format: cell-based; conditions: mean ± SD; for IC50 Balb/3T3: 72 h exposure; for IC50: Mus musculus, BALB/3T3, 72 h exposure
Protocol: Biphenotypic B myelomonocytic leukemia MV4-11, human lung carcinoma A549, human breast carcinoma MCF-7, and normal mouse fibroblast BALB/3T3 cells were obtained from American Type Culture Collection (Rockville, Maryland, USA). All the cell lines are being maintained at the Institute of Immunology and Experimental Therapy, Wroclaw, Poland. MV4-11 cells were cultured in RPMI 1640 medium (Gibco, UK) with 2 mM L-glutamine adjusted to contain 1.0 mM sodium pyruvate, and 10% fetal bovine serum (FBS) (all from Sigma-Aldrich, Germany). A549 cells were cultured in RPMI 1640+ Opti-MEM (1:1) (both from Gibco, UK), MCF-7 cells in Eagle medium (IIET, Wroclaw, Poland), BALB/3T3 in Dulbecco medium (IIET, Poland) supplemented with 2 mM L-glutamine and 1.0 mM sodium pyruvate, 10% fetal bovine serum (all from Sigma-Aldrich, Germany). The MCF-7 cell culture was supplemented with 0.8 mg/l of insulin (Sigma-Aldrich, Germany). All culture media were supplemented with 100 units/ml penicillin, and 100 µg/ml streptomycin (both from Polfa Tarchomin S.A., Poland). All cell lines were grown at 37 °C with 5% CO2 humidified atmosphere (Łączkowski et al. [2014], [2016a]). Prior to usage, the compounds were dissolved in DMSO and culture medium (1: 9) to the concentration of 1 mg/ml, and subsequently diluted in culture medium to reach the required concentrations (0.1, 1, 10, and 100 µg/ml) (Łączkowski et al. [2014], [2016a]). Twenty-four hours prior to the addition of the tested compounds, the cells counted using Burker hemocytometer were plated in 96-well plates (Sarstedt, Germany) at a density of 1 × 10^4 cells per well. The assay was performed after 72 h of exposure to varying concentrations of the tested agents. The in vitro cytotoxic effect of all agents was examined using the SRB assay for adherent cells (A549, MCF-7, and BALB/3T3) or MTT assay for leukemia cells (MV4-11) as described previously. […] Each compound in each concentration was tested in triplicate in a single experiment, which was repeated 3–7 times (Rubinstein et al. [1990]; Bramson et al. [1995]). Cells were attached to the bottom of plastic wells by fixing them with cold 50% TCA (trichloroacetic acid, POCH, Gliwice, Poland) on top of the culture medium in each well. The plates were incubated at 4 °C for 1 h and then washed five times with tap water. The cellular material fixed with TCA was stained with 0.1% sulforhodamine B (SRB, Sigma-Aldrich, Germany) and dissolved in 1% acetic acid (POCH, Gliwice, Poland) for 30 min. Unbound dye was removed by rinsing (4×) in 1% acetic acid. The protein-bound dye was extracted with 10 mM unbuffered Tris base (Sigma-Aldrich, Germany) for determination of the optical density (λ = 540 nm) in a computer-interfaced, 96-well Synergy H4 (BioTek Instruments USA) photometer microtiter plate reader (Sidoryk et al. [2012]).

mouse L929 fibroblast = assay: Cell viability assay (MTT), L929; format: cell-based; conditions: 24 h; for CC30 L929: concentration for 30% proliferation inhibition
Protocol: (§1) The epithelial cell line VERO (ATCC-Catalog No. CCL-81^TM), derived from the kidney of the African green monkey, Cercopithecus aethiops and fibroblast cell line L-929 (ATCC-Catalog No. CCL-1^TM), derived from Mus musculus (http://www.atcc.org) were grown in Iscoves’s Modified Dulbecco’s Medium (IMDM) supplemented with 10% (v/v) fetal bovine serum (FBS), plus 2 mM L-glutamine, 100 U/ml penicillin, 100.00 µg/ml streptomycin, 5 × 10^−5 M 2-mercaptoethanol and maintained at 37 °C in a 10% CO2 atmosphere. Subcultures were performed via enzymatic cell dissociation in 0.25% trypsin. After dissociation, the cells were placed in culture medium at 4 °C with 10% FBS to inhibit the action of trypsin. The isolated cells were centrifuged for 10 min at 1000×g at 4 °C, and the cells were grown in new bottles. This procedure was repeated when cells reached a confluence of ~90%. All commercial reactants and solvents were purchased from either Sigma-Aldrich Laborchemikalien GmbH (Dzitko et al. [2014]).
(§2) Suspensions of the compounds 4a–l were freshly prepared (5 mg/ml DMSO) before the cells were exposed, and diluted to appropriate concentrations; 0.9, 1.8, 3.9, 7.8, 15.6, 31.2, 62.5, and 125.00 μg/ml with the culture medium. Cells treated with 2.5% DMSO-solvent served as a control in each experiment.
(§3) The effects of tested compounds on the viability of mouse fibroblasts L929 and […] VERO cells were evaluated using the MTT assay. The MTT assay was used according to international standards: ISO 10993-5:2009 (Tests for in vitro cytotoxicity; http://www.iso.org/iso/catalogue_detail.htm? csnumber = 36406). L929 and VERO cells were plated into 96-well plates at a density of 1.0 × 10^4/100 μl/well in culture medium and allowed to attach for 24 h before treatment. Afterwards, culture medium in the plates was replaced by 100 μl compounds suspension at concentration of 0–125 μg/ml and the cells were exposed for 24 h. Then 1 mg/ml MTT (50 μl/well) was added to each well and incubated at 37 °C, 10 % CO2 for 2 h. Mitochondrial dehydrogenases of viable cells reduce the yellowish water-soluble MTT to water-insoluble formazan crystals, which were solubilized with dimethyl sulfoxide (DMSO). The cell culture medium was aspirated cautiously, after which 150 μl DMSO was added to each well and mixed thoroughly. Optical density (OD) was read on the ELISA reader (Multiskan EX, Labsystems; http://www.mtxlsi.com/multiskan_EX.htm) at 550 nm. The results were expressed as percentage viability compared with the treated 2.5% DMSO controls. All experiments were performed in triplicate.

VERO cells = assay: Cell viability assay (MTT), VERO; format: cell-based, Cercopithecus aethiops; conditions: 24 h; for CC30 VERO: concentration for 30% proliferation inhibition
Protocol: as §1, §2, §3

| SMILES | IC50 Balb/3T3 [1] [mg/L] | Viability L929 (mouse L929 fibroblast; 0.9 µg/ml) [%] | Viability L929 (mouse L929 fibroblast; 1.8 µg/ml) [%] | Viability L929 (mouse L929 fibroblast; 3.9 µg/ml) [%] | Viability L929 (mouse L929 fibroblast; 7.8 µg/ml) [%] | Viability L929 (mouse L929 fibroblast; 15.6 µg/ml) [%] | Viability L929 (mouse L929 fibroblast; 31.2 µg/ml) [%] | Viability L929 (mouse L929 fibroblast; 62.5 µg/ml) [%] | Viability L929 (mouse L929 fibroblast; 125.0 µg/ml) [%] | CC30 L929 (mouse L929 fibroblast) [mg/L] | Viability VERO (VERO cells; 0.9 µg/ml) [%] | Viability VERO (VERO cells; 1.8 µg/ml) [%] | Viability VERO (VERO cells; 3.9 µg/ml) [%] | Viability VERO (VERO cells; 7.8 µg/ml) [%] | Viability VERO (VERO cells; 15.6 µg/ml) [%] | Viability VERO (VERO cells; 31.2 µg/ml) [%] | Viability VERO (VERO cells; 62.5 µg/ml) [%] | Viability VERO (VERO cells; 125.0 µg/ml) [%] | CC30 VERO (VERO cells) [mg/L] | IC50 [1] [mg/L] |
| --- | --- | --- | --- | --- | --- | --- | --- | --- | --- | --- | --- | --- | --- | --- | --- | --- | --- | --- | --- | --- |
| CC(=O)Nc1ccc(-c2csc(N/N=C(\C)c3ccc(Nc4nc(N)nc(N)n4)cc3)n2)cc1 [Compound 4g, (E)-N^2-(4-(2-(2-(1-(4-(4,6-diamino-1,3,5-triazin-2-yloamino)phenyl)ethylidene)hydraziny)thiazol-4-yl)phenyl)-acetamide] | >100 | 102.34 | 102.12 | 100.36 | 98.86 | 94.31 | 99.83 | 103.01 | 105.39 | >125.0 | 93.72 | 90.59 | 95.35 | 98.14 | 98.43 | 98.96 | 94.25 | 91.41 | >125.0 | – |
| C/C(=N\Nc1nc(-c2ccc(Cl)cc2)cs1)c1ccc(Nc2nc(N)nc(N)n2)cc1 [Compound 4b, (E)-N^2-(4-(1-(2-(4-(4-chlorophenyl)-1,3-thiazol-2-yl)hydrazinylidene)ethyl)phenyl)-1,3,5-triazine-2,4,6-triamine] | – | – | – | – | – | – | – | – | – | >125.0 | – | – | – | – | – | – | – | – | >125.0 | > 100 |
| C/C(=N\Nc1nc(-c2ccc(NS(C)(=O)=O)cc2)cs1)c1ccc(Nc2nc(N)nc(N)n2)cc1 [Compound 4j, (E)-N-(4-(2-(2-(1-(4-(4,6-diamino-1,3,5-triazin-2-yloamino)phenyl)ethylidene)hydrazinyl)thiazol-4-yl)phenyl)-methanesulfonamide] | >100 | 98.90 | 106.36 | 104.20 | 101.86 | 100.71 | 104.07 | 102.92 | 106.67 | >125.0 | 79.82 | 93.81 | 93.62 | 89.25 | 90.98 | 96.22 | 97.76 | 89.44 | >125.0 | – |
| C/C(=N\Nc1nc(-c2ccccc2)cs1)c1ccc(Nc2nc(N)nc(N)n2)cc1 [Compound 4k, (E)-N^2-(4-(1-(2-(4-phenyl-1,3-thiazol-2-yl)hydrazinylidene)ethyl)phenyl)-1,3,5-triazine-2,4,6-triamine] | – | – | – | – | – | – | – | – | – | >125.0 | – | – | – | – | – | – | – | – | >125.0 | > 100 |
| C/C(=N\Nc1nc(-c2ccc3[nH]c(=O)oc3c2)cs1)c1ccc(Nc2nc(N)nc(N)n2)cc1 [Compound 4l, (E)-6-(2-(2-(1-(4-(4,6-diamino-1,3,5-triazin-2-yloamino)phenyl)ethylidene)hydrazinyl)thiazol-4-yl)-benzo[d]oxazol-2(3H)-on] | >100 | 103.88 | 109.00 | 103.03 | 101.74 | 105.02 | 105.52 | 108.10 | – | >62.5 | 97.13 | 87.85 | 95.16 | 91.03 | 96.08 | 95.40 | 97.33 | – | >62.5 | – |
| C/C(=N\Nc1nc(-c2ccc([N+](=O)[O-])cc2)cs1)c1ccc(Nc2nc(N)nc(N)n2)cc1 [Compound 4h, (E)-N^2-(4-(1-(2-(4-(4-nitrophenyl)-1,3-thiazol-2-yl)hydrazinylidene)ethyl)phenyl)-1,3,5-triazine-2,4,6-triamine] | – | – | – | – | – | – | – | – | – | >125.0 | – | – | – | – | – | – | – | – | >125.0 | > 100 |
| C/C(=N\Nc1nc(-c2ccc(Br)cc2)cs1)c1ccc(Nc2nc(N)nc(N)n2)cc1 [Compound 4d, (E)-N^2-(4-(1-(2-(4-(4-bromophenyl)-1,3-thiazol-2-yl)hydrazinylidene)ethyl)phenyl)-1,3,5-triazine-2,4,6-triamine] | – | – | – | – | – | – | – | – | – | >125.0 | – | – | – | – | – | – | – | – | >125.0 | 65.2 ± 24.5 |
| C/C(=N\Nc1nc(-c2ccc(Cl)c(Cl)c2)cs1)c1ccc(Nc2nc(N)nc(N)n2)cc1 [Compound 4i, (E)-N^2-(4-(1-(2-(4-(3,4-dichlorophenyl)-1,3-thiazol-2-yl)hydrazinylidene)ethyl)phenyl)-1,3,5-triazine-2,4,6-triamine] | – | – | – | – | – | – | – | – | – | >62.5 | – | – | – | – | – | – | – | – | >62.5 | > 100 |
| C/C(=N\Nc1nc(-c2ccc(F)cc2)cs1)c1ccc(Nc2nc(N)nc(N)n2)cc1 [Compound 4a, (E)-N^2-(4-(1-(2-(4-(4-fluorophenyl)-1,3-thiazol-2-yl)hydrazinylidene)ethyl)phenyl)-1,3,5-triazine-2,4,6-triamine] | – | – | – | – | – | – | – | – | – | >125.0 | – | – | – | – | – | – | – | – | >125.0 | 62.6 ± 8.69 |
| C/C(=N\Nc1nc(-c2ccc(C)cc2)cs1)c1ccc(Nc2nc(N)nc(N)n2)cc1 [Compound 4c, (E)-N^2-(4-(1-(2-(4-(4-tolyl)-1,3-thiazol-2-yl)hydrazinylidene)ethyl)phenyl)-1,3,5-triazine-2,4,6-triamine] | – | – | – | – | – | – | – | – | – | >125.0 | – | – | – | – | – | – | – | – | >125.0 | > 100 |
